Earlier results in article PMC8617627, “Novel DYRK1A Inhibitor Rescues Learning and Memory Deficits in a Mouse Model of Down Syndrome” (Pharmaceuticals, 2021).
Read-outs that look alike come from different tables or passages of the source.

Tested on: 139-protein kinase panel
Conditions: no reference given, cited from earlier work

CN[C@@H]1C[C@H]2O[C@@](C)([C@@H]1OC)n1c3ccccc3c3c4c(c5c6ccccc6n2c5c31)C(=O)NC4 [staurosporine]
GINI-index (comparison value for staurosporine, with 10 uM ATP): 0.093

COc1ccc2c(c1)[nH]c1c(C)nccc12 [harmine]
GINI-index (comparison value for harmine): 0.506
